This is an account of results in the NIST ThermoML archive (doi:10.1016/j.fluid.2006.05.027).

The conditions of this data set: 298.15 K, Liquid, Vibrating tube method.

Each structure is given as a SMILES string. Numbers after ± are expanded uncertainties.

In general, mass density refers to the mass of a sample divided by its volume. On to `C=C(C)C1CC=C(C)CC1` (configuration not stated) [1-methyl-4-(1-methylethenyl)cyclohexene], for which the mass density (7640 kPa) is recorded as 844 ± 0.7 kg/m3 and the mass density (10000 kPa) is on record as 845.6 ± 0.7 kg/m3.
